In patent US12187726B1, “Imidazo[1,5-a]pyrido[4,3-e]pyrazines as CK2 inhibitors” (KING FAISAL UNIVERSITY, priority 2024, dated 2025):

Experiments:
[1] = tested on: H1299 (lung) cancer cells; experiment: MTT in vitro cytotoxic activity assay, H1299; type: cell-based; details: Homo sapiens, NCI-H1299; cells exposed for 96 hours; 50% inhibition of cell proliferation; read-out: Cytotoxicity activity IC50, H1299 (lung)
Description: (§1) Compounds 1-16 were screened for their in vitro cytotoxic activity utilizing a 3-(4,5-dimethyl-thiazol-2-yl)-2,5-diphenyltetrazolium bromide (MTT) assay against selected cancer human cell lines consisting of PC3 (prostate), HCT116 (colon), A375 (melanoma), H1299 (lung), MIAPaCa-2 (pancreas), HL60 (leukemia), MCF7 (breast), MDA-MB-231 (breast) (T. Mosmann, J. Immunol. Meth., 1983, 65, 55-63). The cells were cultured at 37° C. in RMPI1640 medium supplemented with 10% fetal bovine serum, 50 IU/mL penicillin, and 50 μg/mL streptomycin in a 5% CO2 incubator. All cells were sub-cultured 3 times/week by trypsinisation. Viable cells were seeded and allowed to adhere for 12 hours before a test drug was added in 96-well plates at an initial density of 1.0×10^5 cells/mL. Tumor cell lines were separately exposed to various concentrations of the tested compounds followed by incubation at a temperature of 37° C. during 96 hours inside a medium of fresh RMPI 1640. Cells were subsequently incubated at 37° C. using MTT at 0.5 mg/mL during 4 hours. After removal of supernatant, formazan crystals were dissolved in isopropanol and the optical density was measured at 570 nm. CX-4945 was used as a positive control.

[2] = tested on: MDA-MB-231 (breast) cancer cells; experiment: MTT in vitro cytotoxic activity assay, MDA-MB-231; type: cell-based; details: Homo sapiens, cells exposed for 96 hours, 50% inhibition of cell proliferation, read-out: Cytotoxicity activity IC50, MDA-MB-231 (breast)
Description: as §1

[3] = tested on: HL60 (leukemia) cancer cells; experiment: MTT in vitro cytotoxic activity assay, HL60; type: cell-based; details: Homo sapiens, HL-60; cells exposed for 96 hours; 50% inhibition of cell proliferation; read-out: Cytotoxicity activity IC50, HL60 (leukemia)
Description: as §1

[4] = tested on: PC3 (prostate) cancer cells; experiment: MTT in vitro cytotoxic activity assay, PC3; type: cell-based; details: Homo sapiens; cells exposed for 96 hours; 50% inhibition of cell proliferation; read-out: Cytotoxicity activity IC50, PC3 (prostate)
Description: as §1

[5] = tested on: MIAPaCa-2 (pancreas) cancer cells; experiment: MTT in vitro cytotoxic activity assay, MIAPaCa-2; type: cell-based; details: Homo sapiens, MIA PaCa-2; cells exposed for 96 hours; 50% inhibition of cell proliferation; read-out: Cytotoxicity activity IC50, MIAPaCa-2 (pancreas)
Description: as §1

[6] = tested on: A375 (melanoma) cancer cells; experiment: MTT in vitro cytotoxic activity assay, A375; type: cell-based; details: Homo sapiens, A-375; cells exposed for 96 hours; 50% inhibition of cell proliferation; read-out: Cytotoxicity activity IC50, A375 (melanoma)
Description: as §1

[7] = molecular target: T1, recombinant human CK2 (RRββ-holoenzyme) (Homo sapiens, UniProt P68400); experiment: CK2 Kinase Assay (33P-ATP, filter plate); type: biochemical; details: final ATP concentration 15 μM; 10 min at 30° C.; read-out: protein kinase CK2 IC50
T1 construct: purchased Millipore
T1 sequence (P68400 whole entry): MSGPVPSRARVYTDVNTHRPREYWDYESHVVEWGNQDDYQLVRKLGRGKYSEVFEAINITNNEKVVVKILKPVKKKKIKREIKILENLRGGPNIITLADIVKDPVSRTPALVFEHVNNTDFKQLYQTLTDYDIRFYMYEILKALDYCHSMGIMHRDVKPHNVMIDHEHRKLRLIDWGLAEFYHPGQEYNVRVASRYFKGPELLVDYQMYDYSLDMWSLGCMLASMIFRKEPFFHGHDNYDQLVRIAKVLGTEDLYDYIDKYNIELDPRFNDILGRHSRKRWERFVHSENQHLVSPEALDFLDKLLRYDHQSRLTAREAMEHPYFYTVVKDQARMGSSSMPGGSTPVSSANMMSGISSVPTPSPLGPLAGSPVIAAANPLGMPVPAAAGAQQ
T1 sequence (P67870 whole entry partner): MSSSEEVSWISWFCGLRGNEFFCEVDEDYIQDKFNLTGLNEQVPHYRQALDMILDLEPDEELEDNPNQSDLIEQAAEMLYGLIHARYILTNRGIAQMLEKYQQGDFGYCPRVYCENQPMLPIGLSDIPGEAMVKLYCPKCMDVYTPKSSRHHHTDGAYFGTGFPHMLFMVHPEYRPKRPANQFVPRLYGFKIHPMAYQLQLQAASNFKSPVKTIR
Description: CK2 Kinase Assay was conducted using the protocol as described in Pierre F. et al; J. Med. Chem. 2011, 54, 635-654. The tested compounds in aqueous solution were added at a volume of 10 μL to a reaction mixture comprising 10 μL of assay dilution buffer (ADB; 20 mM MOPS, pH 7.2, 25 mM β-glycerol phosphate, 5 mM EGTA, 1 mM sodium orthovanadate, and 1 mM dithiothreitol), 10 μL of substrate peptide (RRRDDDSDDD, dissolved in ADB at a concentration of 1 mM), 10 μL of recombinant human CK2 (RRββ-holoenzyme, 25 ng dissolved in ADB; Millipore). Reactions were initiated by the addition of 10 μL of ATP solution (90% 75 mMMgCl2, 75 μM ATP (final ATP concentration: 15 μM) dissolved in ADB; 10% [γ-33P] ATP (stock 1mCi/100 μL; 3000 Ci/mmol (Perkin-Elmer) and maintained for 10 min at 30° C. The reactions were quenched with 100 μL of 0.75% phosphoric acid and then transferred to and filtered through a phosphor cellulose filter plate (Millipore). After washing each well five times with 0.75% phosphoric acid, the plate was dried under vacuum for 5 min and, following the addition of 15 μL of scintillation fluid to each well, the residual radioactivity was measured using a Wallac luminescence counter. The IC50 values were derived from eight concentrations of test inhibitors.

[8] = tested on: HCT116 (colon) cancer cells; experiment: MTT in vitro cytotoxic activity assay, HCT116; type: cell-based; details: Homo sapiens, HCT-116; cells exposed for 96 hours; 50% inhibition of cell proliferation; read-out: Cytotoxicity activity IC50, HCT116 (colon)
Description: as §1

[9] = tested on: MCF7 (breast) cancer cells; experiment: MTT in vitro cytotoxic activity assay, MCF7; type: cell-based; details: Homo sapiens, cells exposed for 96 hours, 50% inhibition of cell proliferation, read-out: Cytotoxicity activity IC50, MCF7 (breast)
Description: as §1

Q: What does the source list for `O=C(O)c1ncn2c1c(Nc1cccc(Cl)c1)nc1ccncc12` [Compound 1, 4-((3-chlorophenyl)amino) imidazo[1,5-a]pyrido[4,3-e]pyrazine-3-carboxylic acid]?
A: IC50 [1]: 2.5 µM; IC50 [2]: 5.2 µM; IC50 [3]: 2.6 µM; IC50 [4]: 2.1 µM; IC50 [5]: 1.1 µM; IC50 [6]: 3.3 µM; IC50 [7]: 0.036 µM; IC50 [8]: 1.8 µM; IC50 [9]: 5.9 µM
